Assay results from patent publication US20160113921A1, “COMBINATION THERAPY COMPRISING OXAZOLIDINONE-QUINOLONES FOR USE IN TREATING BACTERIAL INFECTIONS” (MORPHOCHEM AKTIENGESELLSCHAFT FÜR KOMBINATORISCHE CHEMIE, priority 2013, published 2016).
Converted amounts (≈) assume the structure as drawn. “And” between values parts separate entries of the source, which are not always exact repeats. Identical values can stand only once.

What was measured:
Assay type in all cases: cell-based
E. coli ATCC 25922 [1] = test: MIC, broth microdilution (CLSI), CAMHB; settings: Escherichia coli; monosubstance; Ec ATCC25922; read-out: MIC
Description: (§1) MIC-testing was done immediately after preparation of the dilutions. All tests were done in duplicate and repeated once on a separate occasion.
(§2) 1 mL of the bacterial suspension was transferred into a tube containing 10 mL CAMHB and was vortexed thoroughly. (S. pneumoniae 1 mL in 10 mL CAMHB+5% lysed horse blood). Columns 1-15 of the 96-well plate were inoculated with 5 μL of this suspension (1-15=antibacterial solution, 16=sterile medium without test item).
(§3) Turbidity was read visually with a mirror.

E. faecalis ATCC 29212 = test: MIC, broth microdilution (CLSI), CAMHB; settings: Enterococcus faecalis; monosubstance; Ef ATCC29212; read-out: MIC
Description: as §1, §2, §3

E. faecalis V583 (VanB) = test: MIC, broth microdilution (CLSI), CAMHB; settings: Enterococcus faecalis; monosubstance; Ef V583; read-out: MIC
Description: as §1, §2, §3

S. aureus ATCC 29213 = test: MIC, broth microdilution (CLSI), CAMHB; settings: Staphylococcus aureus; monosubstance; Sa ATCC29213; read-out: MIC
Description: as §1, §2, §3

[2] = test system: S. aureus ATCC 33593 (MRSA); test: MIC, broth microdilution (CLSI), CAMHB; settings: Staphylococcus aureus; monosubstance; Sa ATCC33593; read-out: MIC
Description: as §1, §2, §3

S. pneumoniae ATCC 33400 = test: MIC, broth microdilution (CLSI), CAMHB; settings: Streptococcus pneumoniae; monosubstance; Spn ATCC33400; read-out: MIC
Description: as §1, §2, §3

[3] = test system: S. pneumoniae BAY 19397 (penicillin-, macrolide-, quinolone-resistant); test: MIC, broth microdilution (CLSI), CAMHB; settings: monosubstance; Spn 19397; listed as MCB
Description: as §1, §2, §3

[4] = test system: S. aureus DSM 11823, clone 16 (MSSA, quinolone-resistant); test: microbe, parasite or virus in culture; settings: Staphylococcus aureus
Description: as §1, §2, §3

E. coli ATCC 25922 [5] = test: Time-kill curves; settings: E. coli ATCC25922; for growth- and kill rates k ('+' = growth, unmarked = kill rate): first four hours
E. coli NRZ-00401 = test: Time-kill curves; settings: E. coli NRZ00401; for growth- and kill rates k ('+' = growth, unmarked = kill rate): first four hours
E. coli NRZ-00302 = test: Time-kill curves; settings: E. coli NRZ00302; for growth- and kill rates k ('+' = growth, unmarked = kill rate): first four hours
E. coli GNS-2601 = test: Time-kill curves; settings: E. coli GNS2601; for growth- and kill rates k ('+' = growth, unmarked = kill rate): first four hours
[6] = test system: P. aeruginosa NRZ-00425 (VIM-2 β-lactamase); test: microbe, parasite or virus in culture; settings: Pseudomonas aeruginosa, checkerboard, read-out: MIC (agent alone)
Excerpt: (§4) The checkerboard consists of columns in which each well contains the same amount of antibacterial A being over i dilutions along the x-axis, and in rows in which each well contains the same amount of antibacterial B over j dilutions on the y-axis, i.e. serial dilutions of antibacterials A and B, respectively, are titrated in a rectangular fashion.
(§5) The fractional inhibitory concentration (FIC) is a mathematical expression of the effect of the combination of two antibacterial agents A and B. The FICs were calculated as the MIC of antibacterial A and antibacterial B in combination divided by the MIC of antibacterial A or antibacterial B alone.
(§6) The FICs and FIC index, respectively, are calculated according to the following equations:
(§7) FIC(A)=MIC(A in the presence of B)/MIC(A alone)
(§8) FIC(B)=MIC(B in the presence of A)/MIC(B alone)
(§9) The checkerboard titrations were performed three times.

E. cloacae ATCC 13047 [7] = test: MIC, broth microdilution (CLSI), CAMHB; settings: Enterobacter cloacae; monosubstance; Ecl ATCC13047; read-out: MIC
Description: as §1, §2, §3

[8] = test system: E. coli NRZ-00401 (metallo β-lactamase VIM-1); test: MIC, broth microdilution (CLSI), CAMHB; settings: Escherichia coli; monosubstance; Ec NRZ00401; read-out: MIC
Description: as §1, §2, §3

E. faecium DSMZ 2146 = test: MIC, broth microdilution (CLSI), CAMHB; settings: Enterococcus faecium; monosubstance; Efc DSMZ2146; read-out: MIC
Description: as §1, §2, §3

[9] = test system: E. faecium UW 3695 (linezolid and quinolone-resistant); test: MIC, broth microdilution (CLSI), CAMHB; settings: Enterococcus faecium; monosubstance; Efc UW3695; read-out: MIC
Description: as §1, §2, §3

K. pneumoniae ATCC 13883 = test: MIC, broth microdilution (CLSI), CAMHB; settings: Klebsiella pneumoniae; monosubstance; Kp ATCC13883; read-out: MIC
Description: as §1, §2, §3

[10] = test system: S. aureus NRS-119 (MRSA, linezolid- and quinolone-resistant); test: MIC, broth microdilution (CLSI), CAMHB; settings: Staphylococcus aureus; monosubstance; Sa NRS119; read-out: MIC
Description: as §1, §2, §3

[11] = test system: S. aureus Visa Mu 50 (MRSA, vancomycin intermediate susceptible); test: MIC, broth microdilution (CLSI), CAMHB; settings: Staphylococcus aureus; monosubstance; Sa VisaMu50; read-out: MIC
Description: as §1, §2, §3

E. cloacae ATCC 13047 [12] = test: Checkerboard titration of Compound 1 and colistin; settings: Enterobacter cloacae, ATCC13047, checkerboard, read-out: MIC (agent alone)
Excerpt: as §4, §5, §6, §7, §8, §9

E. coli ATCC 25922 [13] = test: Checkerboard titration of Compound 1 and colistin; settings: Escherichia coli, ATCC25922, read-out: MIC (agent alone)
Excerpt: as §4, §5, §6, §7, §8, §9

[14] = test system: Gram-positive strains tested; test: MIC testing, statements on the Gram-positive strain panel; settings: all Gram-positive strains tested; read-out: MIC (inhibitory concentration)
Excerpt: as §1

[15] = test system: six selected indicator strains; test: Checkerboard titration, statements on the six indicator strains; settings: read-out: MIC of Compound 1 alone, checkerboard; strains as worded in the text
Excerpt: as §4, §5, §9

[16] = test system: E. coli GNS-2601 (ESBL CTX-M-15); test: MIC, broth microdilution (CLSI), CAMHB; settings: Escherichia coli; monosubstance; Ec GNS2601; read-out: MIC
Description: as §1, §2, §3

[17] = test system: E. coli NRZ-00302 (metallo β-lactamase NDM-1); test: MIC, broth microdilution (CLSI), CAMHB; settings: Escherichia coli; monosubstance; Ec NRZ00302; read-out: MIC
Description: as §1, §2, §3

[18] = test system: E. coli ATCC 25922, NRZ-00401, NRZ-00302 and GNS-2601; test: Time-kill curves, statements on the four E. coli strains

Structure (SMILES): CC(=O)NC[C@H]1CN(c2ccc(OCC3(O)CCN(c4cc5c(cc4F)c(=O)c(C(=O)O)cn5C4CC4)CC3)c(F)c2)C(=O)O1 [Compound 1, 7-(4-{4-[(5S)-5-(acetylamino-methyl)-2-oxo-oxazolidin-3-yl]-2-fluoro-phenoxymethyl}-4-hydroxy-piperidin-1-yl)-1-cyclopropyl-6-fluoro-4-oxo-1,4-dihydro-quinoline-3-carboxylic acid]
- MIC (E. coli ATCC 25922 [1]): 16 µg/mL (≈ 25.5 µM)
- MIC (E. faecalis ATCC 29212): 0.03 µg/mL (≈ 0.0479 µM)
- MIC (E. faecalis V583 (VanB)): 0.03 µg/mL (≈ 0.0479 µM)
- MIC (S. aureus ATCC 29213): 0.25 µg/mL (≈ 0.399 µM)
- MIC [2]: 0.03 µg/mL (≈ 0.0479 µM)
- MIC (S. pneumoniae ATCC 33400): 0.0075 µg/mL (≈ 0.012 µM)
- MIC [3]: 0.0004 µg/mL (≈ 0.000638 µM)
- MIC [4]: 0.03 µg/mL (≈ 0.0479 µM)
- Viable counts at 8 h of exposure (E. coli ATCC 25922 [5]; single agent at 1x its MIC): 4.69 log10 CFU/mL
- Viable counts at 8 h of exposure (E. coli ATCC 25922 [5]; single agent at 2x its MIC, listed as MCB): 2.61 log10 CFU/mL and 2.62 log10 CFU/mL
- Viable counts at 8 h of exposure (E. coli NRZ-00401; single agent at 1x its MIC): 6.32 log10 CFU/mL
- Viable counts at 8 h of exposure (E. coli NRZ-00302; single agent at 1x its MIC): 8.28 log10 CFU/mL
- Viable counts at 8 h of exposure (E. coli NRZ-00302; single agent at 2x its MIC): 5.69 log10 CFU/mL
- Viable counts at 8 h of exposure (E. coli GNS-2601; single agent at 1x its MIC, listed as MCB): 8.34 log10 CFU/mL and 7.34 log10 CFU/mL
- Viable counts at 8 h of exposure (E. coli GNS-2601; single agent at 2x its MIC): 6.29 log10 CFU/mL
- MIC [6]: 128 to 256 µg/mL

Structure (SMILES): CC(=O)NC[C@H]1CN(c2ccc(OCC3(O)CCN(c4cc5c(cc4F)c(=O)c(C(=O)O)cn5C4CC4)CC3)c(F)c2)C(=O)O1 [Compound 1, 7-(4-{4-[(5S)-5-(acetylamino-methyl)-2-oxo-oxazolidin-3-yl]-2-fluoro-phenoxymethyl}-4-hydroxy-piperidin-1-yl)-1-cyclopropyl-6-fluoro-4-oxo-1,4-dihydro-quinoline-3-carboxylic]
- MIC (E. cloacae ATCC 13047 [7]): 128 µg/mL (≈ 204 µM)
- MIC [8]: 16 µg/mL (≈ 25.5 µM)
- MIC (E. faecium DSMZ 2146): 0.06 µg/mL (≈ 0.0958 µM)
- MIC [9]: 0.06 µg/mL (≈ 0.0958 µM)
- MIC (K. pneumoniae ATCC 13883): 128 µg/mL (≈ 204 µM)
- MIC [10]: 1 µg/mL (≈ 1.6 µM)
- MIC [11]: 0.06 µg/mL (≈ 0.0958 µM)
- MIC (E. cloacae ATCC 13047 [12]): > 256 µg/mL
- MIC (E. coli ATCC 25922 [13]): 8 to 16 µg/mL
- MIC [14]: < 0.25 µg/mL
- MIC [15]: > 256 µg/mL

Structure (SMILES): C[C@@H]1O[C@@H]1P(=O)(O)O [fosfomycin]
- MIC (E. coli ATCC 25922 [1]): 2 µg/mL (≈ 14.5 µM)
- MIC [16]: 64 µg/mL (≈ 464 µM)
- MIC [17]: 64 µg/mL (≈ 464 µM)
- MIC [8]: 2 µg/mL (≈ 14.5 µM)
- growth- and kill rates k ('+' = growth, unmarked = kill rate) (E. coli ATCC 25922 [5]; single agent at 1x its MIC): +0.68 h^−1
- growth- and kill rates k ('+' = growth, unmarked = kill rate) (E. coli ATCC 25922 [5]; single agent at 2x its MIC): +0.72 h^−1
- Viable counts at 8 h of exposure (E. coli ATCC 25922 [5]; single agent at 1x its MIC): 8.95 log10 CFU/mL
- Viable counts at 8 h of exposure (E. coli ATCC 25922 [5]; single agent at 2x its MIC): 8.59 log10 CFU/mL
- growth- and kill rates k ('+' = growth, unmarked = kill rate) (E. coli NRZ-00401; single agent at 1x its MIC): +0.40 h^−1
- growth- and kill rates k ('+' = growth, unmarked = kill rate) (E. coli NRZ-00401; single agent at 2x its MIC): +0.32 h^−1
- Viable counts at 8 h of exposure (E. coli NRZ-00401; single agent at 1x its MIC): 7.95 log10 CFU/mL
- Viable counts at 8 h of exposure (E. coli NRZ-00401; single agent at 2x its MIC): 6.65 log10 CFU/mL
- growth- and kill rates k ('+' = growth, unmarked = kill rate) (E. coli NRZ-00302; single agent at 1x its MIC): 1.67 h⁻¹
- growth- and kill rates k ('+' = growth, unmarked = kill rate) (E. coli NRZ-00302; single agent at 2x its MIC): 2.09 h⁻¹
- Viable counts at 8 h of exposure (E. coli NRZ-00302; single agent at 1x its MIC): 2.78 log10 CFU/mL
- Viable counts at 8 h of exposure (E. coli NRZ-00302; single agent at 2x its MIC): 1.30 log10 CFU/mL
- growth- and kill rates k ('+' = growth, unmarked = kill rate) (E. coli GNS-2601; single agent at 1x its MIC): 1.21 h⁻¹
- growth- and kill rates k ('+' = growth, unmarked = kill rate) (E. coli GNS-2601; single agent at 2x its MIC): 1.85 h⁻¹
- Viable counts at 8 h of exposure (E. coli GNS-2601; single agent at 1x its MIC): 5.08 log10 CFU/mL
- Viable counts at 8 h of exposure (E. coli GNS-2601; single agent at 2x its MIC): 3.45 log10 CFU/mL
- type of activity in time-kill ([18]; strains ATCC 25922, NRZ-00401): bacteriostatically
- type of activity in time-kill ([18]; strains NRZ-00302 and GNS-2601): bactericidal
